# Test results published in paper PMC10202323, “4′-Deoxypyridoxine disrupts vitamin B6 homeostasis in Escherichia coli K12 through combined inhibition of cumulative B6 uptake and PLP-dependent enzyme activity” (Microbiology, 2023).
# Assays:
# Assay type in all cases: biochemical
# [1] = molecular target: T1, PdxK (Escherichia coli, UniProt P40191); assay: spectrophotometric PLP formation at […] nm; conditions: read-out: inhibition constant
# T1 construct: recombinant, purified to homogeneity as previously reported
# [2] = molecular target: T2, PdxH (Escherichia coli, UniProt P0AFI7); assay: spectrophotometric PLP formation at […] nm; conditions: read-out: apparent inhibition constant
# T2 construct: recombinant, purified to homogeneity as previously reported
# T2 sequence (P0AFI7 2-218): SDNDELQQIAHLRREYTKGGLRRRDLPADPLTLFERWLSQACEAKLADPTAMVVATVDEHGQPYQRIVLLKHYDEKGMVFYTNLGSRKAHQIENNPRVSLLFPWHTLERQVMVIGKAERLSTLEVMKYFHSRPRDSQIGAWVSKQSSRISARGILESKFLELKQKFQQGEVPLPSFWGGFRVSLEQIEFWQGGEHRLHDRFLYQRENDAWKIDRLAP
# [3] = molecular target: T3, GlyA (Escherichia coli, UniProt P0A825); assay: spectrophotometric coupled SHMT assay; conditions: read-out: apparent inhibition constant
# T3 construct: recombinant, purified to homogeneity as previously reported; apoenzyme reconstituted with PLP
# T3 sequence (P0A825 1-417): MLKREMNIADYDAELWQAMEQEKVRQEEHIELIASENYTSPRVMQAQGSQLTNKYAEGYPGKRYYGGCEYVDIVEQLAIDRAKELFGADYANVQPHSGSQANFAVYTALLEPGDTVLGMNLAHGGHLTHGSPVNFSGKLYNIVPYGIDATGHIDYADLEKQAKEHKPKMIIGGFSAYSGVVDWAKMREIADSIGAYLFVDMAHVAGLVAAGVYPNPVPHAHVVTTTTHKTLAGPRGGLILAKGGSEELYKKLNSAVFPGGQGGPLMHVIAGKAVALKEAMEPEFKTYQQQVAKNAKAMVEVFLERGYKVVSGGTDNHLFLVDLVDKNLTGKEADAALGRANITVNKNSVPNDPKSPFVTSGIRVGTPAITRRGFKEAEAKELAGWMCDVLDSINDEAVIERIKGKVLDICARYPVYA
# T1 sequence (P40191 whole entry): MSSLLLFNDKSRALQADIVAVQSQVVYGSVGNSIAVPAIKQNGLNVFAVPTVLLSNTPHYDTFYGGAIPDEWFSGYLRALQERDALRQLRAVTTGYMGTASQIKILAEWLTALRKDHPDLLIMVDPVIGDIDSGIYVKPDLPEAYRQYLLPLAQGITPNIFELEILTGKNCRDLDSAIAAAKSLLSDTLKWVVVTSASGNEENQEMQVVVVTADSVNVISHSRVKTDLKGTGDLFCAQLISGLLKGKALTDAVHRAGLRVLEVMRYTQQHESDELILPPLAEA
Structure (SMILES),Ki [1] [µM],Ki [2] [µM],Ki [3] [µM]
Cc1ncc(CO)c(C)c1O [4dPN],0.5 ± 0.6,,
Cc1ncc(COP(=O)(O)O)c(C)c1O [4dPNP],,530 ± 30,50 ± 30
